Reference: ChEMBL document CHEMBL4177715, “Synthesis of radioiodinated probes targeted toward matrix metalloproteinase-12” (Bioorg Med Chem Lett, 2018)

What was measured:
[1] = molecular target: Collagenase 3 (Homo sapiens, UniProt P45452); assay: Inhibition of recombinant human MMP13 using Mca-Pro-Leu-Gly-Leu-Dpa(Dnp)-Ala-Arg-NH2 as substrate after 30 mins by fluorescence spectrometry
[2] = molecular target: Macrophage metalloelastase (Homo sapiens, UniProt P39900); assay: Inhibition of recombinant human MMP12 using Mca-Pro-Leu-Gly-Leu-Dpa(Dnp)-Ala-Arg-NH2 as substrate after 30 mins by fluorescence spectrometry
Macrophage metalloelastase, sequence (P39900 whole entry): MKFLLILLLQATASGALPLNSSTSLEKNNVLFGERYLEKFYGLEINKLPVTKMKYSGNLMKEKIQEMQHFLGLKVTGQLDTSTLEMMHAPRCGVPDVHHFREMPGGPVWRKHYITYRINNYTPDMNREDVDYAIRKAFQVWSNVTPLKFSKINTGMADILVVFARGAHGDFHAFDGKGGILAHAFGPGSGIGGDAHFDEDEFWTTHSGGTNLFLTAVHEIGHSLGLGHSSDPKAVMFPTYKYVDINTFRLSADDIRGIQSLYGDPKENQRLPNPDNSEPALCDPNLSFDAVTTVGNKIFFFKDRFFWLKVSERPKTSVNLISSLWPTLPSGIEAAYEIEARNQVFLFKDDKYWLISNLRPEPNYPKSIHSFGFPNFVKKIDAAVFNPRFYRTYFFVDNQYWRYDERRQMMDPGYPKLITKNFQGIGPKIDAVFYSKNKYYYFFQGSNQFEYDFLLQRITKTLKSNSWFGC

IC50 [1] | IC50 [2] | Compound
51 nM | 11 nM | CC(C)[C@H](NS(=O)(=O)c1ccc2c(c1)oc1ccc(NC(=O)Oc3ccc(Br)cc3)cc12)C(=O)O
> 2000 nM | 502 nM | CC(C)[C@H](NS(=O)(=O)c1ccc2c(c1)oc1ccc(NC(=O)c3ccc(I)cc3)cc12)C(=O)O
69 nM | 8.5 nM | CC(C)[C@H](NS(=O)(=O)c1ccc2c(c1)oc1ccc(NC(=O)Oc3ccc(I)cc3)cc12)C(=O)O
403 nM | 297 nM | CC(C)[C@H](NS(=O)(=O)c1ccc2c(c1)oc1ccc(NS(=O)(=O)c3ccc(I)cc3)cc12)C(=O)O
65 nM | – | CC(C)[C@H](NS(=O)(=O)c1ccc2c(c1)oc1ccc(NC(=O)Oc3ccc(F)cc3)cc12)C(=O)O
